The text below walks through data of US9630922B2, “3-spiro-7-hydroxamic acid tetralins as HDAC inhibitors” (Forma Therapeutics, Inc., priority 2015, dated 2017).

In this assay the target is T1, HDAC6 (Homo sapiens, UniProt Q9UBN7).
T1 construct: Full length human recombinant HDAC6 protein was expressed in baculoviral system; made in house; host or cells: baculoviral system
T1 sequence (Q9UBN7 1-1215): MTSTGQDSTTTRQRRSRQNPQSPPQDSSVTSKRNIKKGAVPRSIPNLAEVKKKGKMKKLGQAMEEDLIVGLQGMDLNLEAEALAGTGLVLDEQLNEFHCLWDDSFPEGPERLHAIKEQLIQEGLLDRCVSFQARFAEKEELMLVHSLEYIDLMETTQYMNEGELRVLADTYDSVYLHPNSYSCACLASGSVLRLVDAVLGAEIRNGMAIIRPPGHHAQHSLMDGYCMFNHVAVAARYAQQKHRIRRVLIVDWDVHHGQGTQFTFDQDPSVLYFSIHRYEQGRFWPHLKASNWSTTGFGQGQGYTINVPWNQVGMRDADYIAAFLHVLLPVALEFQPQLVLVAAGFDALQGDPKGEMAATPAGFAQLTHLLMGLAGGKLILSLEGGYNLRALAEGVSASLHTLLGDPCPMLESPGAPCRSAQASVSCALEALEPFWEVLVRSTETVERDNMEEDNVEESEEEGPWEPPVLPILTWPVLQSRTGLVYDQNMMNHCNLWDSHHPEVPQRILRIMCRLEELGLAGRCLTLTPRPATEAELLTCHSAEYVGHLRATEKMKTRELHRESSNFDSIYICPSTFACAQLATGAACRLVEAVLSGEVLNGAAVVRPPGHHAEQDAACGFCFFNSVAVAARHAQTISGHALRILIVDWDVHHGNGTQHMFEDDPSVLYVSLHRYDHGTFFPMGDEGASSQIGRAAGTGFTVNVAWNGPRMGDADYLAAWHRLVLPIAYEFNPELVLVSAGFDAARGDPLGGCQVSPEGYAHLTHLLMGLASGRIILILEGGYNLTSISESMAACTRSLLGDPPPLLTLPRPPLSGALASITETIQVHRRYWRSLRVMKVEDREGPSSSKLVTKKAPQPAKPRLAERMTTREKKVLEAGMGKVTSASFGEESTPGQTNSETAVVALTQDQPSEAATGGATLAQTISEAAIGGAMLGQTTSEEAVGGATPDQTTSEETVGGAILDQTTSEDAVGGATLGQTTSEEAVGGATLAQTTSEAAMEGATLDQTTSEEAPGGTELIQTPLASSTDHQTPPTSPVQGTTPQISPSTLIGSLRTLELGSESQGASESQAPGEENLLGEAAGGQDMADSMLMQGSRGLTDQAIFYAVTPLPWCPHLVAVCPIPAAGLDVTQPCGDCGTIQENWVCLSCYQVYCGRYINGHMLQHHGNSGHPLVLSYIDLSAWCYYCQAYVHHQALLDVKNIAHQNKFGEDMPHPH
Kind of assay: In vitro Histone Deacetylase Assay (enzymatic HDAC6 electrophoretic mobility shift assay). To be noted: full length human recombinant HDAC6, 1 nM enzyme, 2 μM peptide substrate RHKK(Ac)-NH2, 25° C.; read-out: HDAC6 activity range. It is filed as biochemical. As to the method: The enzymatic HDAC6 assay was performed using electrophoretic mobility shift assay. Full length human recombinant HDAC6 protein was expressed in baculoviral system and purified by affinity chromatography. The enzymatic reactions were assembled in 384 well plates in a total volume of 25 μL in a reaction buffer composing: 100 mM HEPES, pH7.5, 25 mM KCl, 0.1% bovine serum albumin, 0.01% Triton X-100, 1% DMSO (from compounds) 2 μM of the fluorescently labeled peptide substrate and enzyme. The enzyme was added at a final concentration of 1 nM. The peptide substrate RHKK(Ac)—NH2 was used. The compounds were tested at 12 concentrations spaced by 3× dilution intervals. Negative control samples (0%-inhibition in the absence of inhibitor) and positive control samples (100%-inhibition) were assembled in replicates of four in each assay plate. The reactions were incubated at 25° C. and quenched by the addition of 45 μL of termination buffer (100 mM HEPES, pH 7.5, 0.01% Triton X-100, 0.05% SDS).
The terminated assay plates were analyzed on LabChip® 3000 microfluidic electrophoresis instrument (Perkin Elmer/Caliper Life Sciences). The fluorescence intensity of the electrophoretically separated de-acetylated product and substrate peptide was measured. Activity in each sample was determined as the product to sum ratio (PSR): P/(S+P), where P is the peak height of the product peptide and S is the peak height of the substrate peptide. Percent inhibition (Pinh) is determined using the following equation:
Pinh=(PSR0%−PSRinh)/(PSR0%−PSR100%)*100, where PSRinh is the product sum ratio in the presence of inhibitor, PSR0% is the average product sum ration in the absence of inhibitor and PSR100% is the average product sum ratio in 100%-inhibition control samples. The IC50 values of inhibitors were determined by fitting the %-inhibition curves with 4 parameter dose-response model using XLfit 4 software.
As set forth in Table-31, below, IC50 values are defined as follows: IC50≦0.1 μM (+++); IC50>0.1 μM and ≦0.5 μM (++); IC50>0.5 μM (+).

For the compound `O=C(NO)c1ccc2c(c1)CCC1(CC(=O)N(CC3CCC3)C1)C2` (single isomer, unassigned) [Compound I-210], the IC50 is not above 0.1 µM.
To `COc1ccc(CN2CC[C@]3(CCc4cc(C(=O)NO)ccc4C3)C2=O)cc1` [Compound I-56, (R)-N-hydroxy-1′-(4-methoxybenzyl)-2′-oxo-3,4-dihydro-1H-spiro[naphthalene-2,3′-pyrrolidine]-6-carboxamide] belongs not above 0.1 µM.
To `CC(C)(C)c1ccc(CN2CC[C@@]3(CCc4cc(C(=O)NO)ccc4C3)C2=O)cc1` [Compound I-85, (S)-1′-(4-(tert-butyl)benzyl)-N-hydroxy-2′-oxo-3,4-dihydro-1H-spiro[naphthalene-2,3′-pyrrolidine]-6-carboxamide] belongs 0.1 to 0.5 µM; to `O=C(NO)c1ccc2c(c1)CC[C@@]1(CCN(c3cccc(F)c3)C1=O)C2` [Compound I-117, (S)-1′-(3-fluorophenyl)-N-hydroxy-2′-oxo-3,4-dihydro-1H-spiro[naphthalene-2,3′-pyrrolidine]-6-carboxamide], not above 0.1 µM; to `O=C(NO)c1ccc2c(c1)CC[C@]1(CCN(c3ccncc3Cl)C1=O)C2` [Compound I-140, (R)-1′-(3-chloropyridin-4-yl)-N-hydroxy-2′-oxo-3,4-dihydro-1H-spiro[naphthalene-2,3′-pyrrolidine]-6-carboxamide], not above 0.1 µM.
To `Cc1ccccc1CN1CC[C@@]2(CCc3cc(C(=O)NO)ccc3C2)C1=O` [Compound I-66, (S)-N-hydroxy-1′-(2-methylbenzyl)-2′-oxo-3,4-dihydro-1H-spiro[naphthalene-2,3′-pyrrolidine]-6-carboxamide] belongs not above 0.1 µM.
Turning to `CC(C)N1CCCC2(CCc3cc(C(=O)NO)ccc3C2)C1=O` (single isomer, unassigned) [Compound I-192], the IC50 is not above 0.1 µM.
For the compound `CN1CCCC2(CCc3cc(C(=O)NO)ccc3C2)C1=O` (centres unmarked) [Compound I-178, N-hydroxy-1′-methyl-2′-oxo-3,4-dihydro-1H-spiro[naphthalene-2,3′-piperidine]-6-carboxamide], the IC50 was not above 0.1 µM.
To `CN(C)CCCN1CCC2(CCc3cc(C(=O)NO)ccc3C2)C1=O` (centres unmarked) [Compound I-9, 1′-(3-(dimethylamino)propyl)-N-hydroxy-2′-oxo-3,4-dihydro-1H-spiro[naphthalene-2,3′-pyrrolidine]-6-carboxamide] belongs 0.1 to 0.5 µM; to `O=C(NO)c1ccc2c(c1)CC[C@@]1(CCCN(C3CCC3)C1=O)C2` (single isomer, unassigned) [Compound I-197], not above 0.1 µM; to `Cc1ncccc1N1CC[C@@]2(CCc3cc(C(=O)NO)ccc3C2)C1=O` [Compound I-132, (S)-N-hydroxy-1′-(2-methylpyridin-3-yl)-2′-oxo-3,4-dihydro-1H-spiro[naphthalene-2,3′-pyrrolidine]-6-carboxamide], not above 0.1 µM.
To `Cc1ccncc1N1CC[C@]2(CCc3cc(C(=O)NO)ccc3C2)C1=O` [Compound I-136, (R)-N-hydroxy-1′-(4-methylpyridin-3-yl)-2′-oxo-3,4-dihydro-1H-spiro[naphthalene-2,3′-pyrrolidine]-6-carboxamide] belongs not above 0.1 µM; to `O=C(NO)c1ccc2c(c1)CC[C@]1(CCN(C/C=C/c3ccccc3)C1=O)C2` [Compound I-37, (R)-1′-cinnamyl-N-hydroxy-2′-oxo-3,4-dihydro-1H-spiro[naphthalene-2,3′-pyrrolidine]-6-carboxamide], not above 0.1 µM.
Regarding `O=C(NO)c1ccc2c(c1)CC[C@]1(CC(=O)N(CC3CCC3)C1)C2` (single isomer, unassigned) [Compound I-205], the IC50 was not above 0.1 µM.
With `O=C(NO)c1ccc2c(c1)CC[C@]1(CCN(c3cccc(F)c3F)C1=O)C2` [Compound I-123, (R)-1′-(2,3-difluorophenyl)-N-hydroxy-2′-oxo-3,4-dihydro-1H-spiro[naphthalene-2,3′-pyrrolidine]-6-carboxamide] the figure was not above 0.1 µM.
As to `CCN1CCCC2(CCc3cc(C(=O)NO)ccc3C2)C1=O` (single isomer, unassigned) [Compound I-194], the IC50 is not above 0.1 µM.
To `COc1ccc(CN2CCC3(CCc4cc(C(=O)NO)ccc4C3)C2)cc1` (centres unmarked) [Compound I-3, N-hydroxy-1′-(4-methoxybenzyl)-3,4-dihydro-1H-spiro[naphthalene-2,3′-pyrrolidine]-6-carboxamide] belongs 0.1 to 0.5 µM.
With `C=C(C)CN1CC[C@]2(CCc3cc(C(=O)NO)ccc3C2)C1=O` [Compound I-47, (R)-N-hydroxy-1′-(2-methylallyl)-2′-oxo-3,4-dihydro-1H-spiro[naphthalene-2,3′-pyrrolidine]-6-carboxamide] the figure was not above 0.1 µM; with `O=C(NO)c1ccc2c(c1)CCC1(CCN(Cc3nc4ccccc4[nH]3)CC1)O2` [II-2, 1′-((1H-benzo[d]imidazol-2-yl)methyl)-N-hydroxyspiro[chromane-2,4′-piperidine]-6-carboxamide], more than 0.5 µM.
With `Cc1nn(C)cc1N1CC[C@]2(CCc3cc(C(=O)NO)ccc3C2)C1=O` [Compound I-98, (R)-1′-(1,3-dimethyl-1H-pyrazol-4-yl)-N-hydroxy-2′-oxo-3,4-dihydro-1H-spiro[naphthalene-2,3′-pyrrolidine]-6-carboxamide] the figure was not above 0.1 µM; with `CC(C)CCN1CC[C@]2(CCc3cc(C(=O)NO)ccc3C2)C1=O` [Compound I-34], not above 0.1 µM; with `O=C(NO)c1ccc2c(c1)CC[C@@]1(CCN(Cc3ccc(Cl)cc3)C1=O)C2` [Compound I-82, (S)-1′-(4-chlorobenzyl)-N-hydroxy-2′-oxo-3,4-dihydro-1H-spiro[naphthalene-2,3′-pyrrolidine]-6-carboxamide], not above 0.1 µM.
`CC(C)n1c(CN2CC[C@@]3(CCc4cc(C(=O)NO)ccc4C3)C2=O)nc2ccccc21` [Compound I-73, (S)-N-hydroxy-1′-((1-isopropyl-1H-benzo[d]imidazol-2-yl)methyl)-2′-oxo-3,4-dihydro-1H-spiro[naphthalene-2,3′-pyrrolidine]-6-carboxamide]: the IC50 is not above 0.1 µM.
With `O=C(NO)c1ccc2c(c1)CC[C@@]1(CCN(Cc3ccc(OC(F)(F)F)cc3)C1=O)C2` [Compound I-80, (S)-N-hydroxy-2′-oxo-1′-(4-(trifluoromethoxy)benzyl)-3,4-dihydro-1H-spiro[naphthalene-2,3′-pyrrolidine]-6-carboxamide] the figure was 0.1 to 0.5 µM; with `O=C(NO)c1ccc2c(c1)CC[C@]1(CCN(Cc3cccnc3)C1=O)C2` [Compound I-18, (R)-N-hydroxy-2′-oxo-1′-(pyridin-3-ylmethyl)-3,4-dihydro-1H-spiro[naphthalene-2,3′-pyrrolidine]-6-carboxamide], not above 0.1 µM; with `CCN1CC[C@]2(CCc3cc(C(=O)NO)ccc3C2)C1=O` [Compound I-161, (R)-1′-ethyl-N-hydroxy-2′-oxo-3,4-dihydro-1H-spiro[naphthalene-2,3′-pyrrolidine]-6-carboxamide], not above 0.1 µM.
